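Cells were grown in 96-well plates and exposed to each compound for 48 hours at five concentrations; endpoints were interpolated linearly between bracketing concentrations, or set to the highest concentration if not reached. GI50 = concentration required for 50% inhibition of growth. Definition used: TGI = concentration required for complete inhibition of growth.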
Tests used:
Experiment in all cases: DTP human tumour cell line panel, 48 h
MDA-MB-231 breast = system: MDA-MB-231 breast
SK-MEL-5 melanoma = system: SK-MEL-5 melanoma
NCI/ADR-RES ovarian = system: NCI/ADR-RES ovarian
HT29 colon = system: HT29 colon
SF-539 CNS = system: SF-539 CNS
COLO 205 colon = system: COLO 205 colon
OVCAR-8 ovarian = system: OVCAR-8 ovarian
HCT-15 colon = system: HCT-15 colon
DU-145 prostate = system: DU-145 prostate
SN12C renal = system: SN12C renal
SR leukemia = system: SR leukemia
SK-MEL-2 melanoma = system: SK-MEL-2 melanoma
MOLT-4 leukemia = system: MOLT-4 leukemia
SNB-19 CNS = system: SNB-19 CNS
CAKI-1 renal = system: CAKI-1 renal
OVCAR-5 ovarian = system: OVCAR-5 ovarian
A498 renal = system: A498 renal
BT-549 breast = system: BT-549 breast
NCI-H226 lung = system: NCI-H226 lung
T-47D breast = system: T-47D breast
SF-268 CNS = system: SF-268 CNS
UACC-257 melanoma = system: UACC-257 melanoma
SK-MEL-28 melanoma = system: SK-MEL-28 melanoma
HOP-92 NSCLC = system: HOP-92 NSCLC
IGROV1 ovarian = system: IGROV1 ovarian
UO-31 renal = system: UO-31 renal
LOX IMVI melanoma = system: LOX IMVI melanoma
SK-OV-3 ovarian = system: SK-OV-3 ovarian
NCI-H460 lung = system: NCI-H460 lung
SW-620 colon = system: SW-620 colon
HCC-2998 colon = system: HCC-2998 colon
CCRF-CEM leukemia = system: CCRF-CEM leukemia
HCT-116 colon = system: HCT-116 colon
NCI-H522 lung = system: NCI-H522 lung
OVCAR-4 ovarian = system: OVCAR-4 ovarian
UACC-62 melanoma = system: UACC-62 melanoma
HS 578T breast = system: HS 578T breast
RPMI-8226 leukemia = system: RPMI-8226 leukemia
A549 NSCLC = system: A549 NSCLC
MALME-3M melanoma = system: MALME-3M melanoma
PC-3 prostate = system: PC-3 prostate
NCI-H23 lung = system: NCI-H23 lung
ACHN renal = system: ACHN renal
EKVX NSCLC = system: EKVX NSCLC
OVCAR-3 ovarian = system: OVCAR-3 ovarian
MDA-MB-435 = system: MDA-MB-435
SNB-75 CNS = system: SNB-75 CNS
MCF7 breast = system: MCF7 breast
HL-60(TB) leukemia = system: HL-60(TB) leukemia
K-562 leukemia = system: K-562 leukemia
KM12 colon = system: KM12 colon
MDA-N = system: MDA-N
TK-10 renal = system: TK-10 renal
U251 CNS = system: U251 CNS
M14 melanoma = system: M14 melanoma
786-0 renal = system: 786-0 renal
RXF 393 renal = system: RXF 393 renal
SF-295 CNS = system: SF-295 CNS
HOP-62 NSCLC = system: HOP-62 NSCLC
KM20L2 colon = system: KM20L2 colon
SNB-78 CNS = system: SNB-78 CNS
DMS 273 small cell lung = system: DMS 273 small cell lung
LXFL 529 NSCLC = system: LXFL 529 NSCLC
DLD-1 colon = system: DLD-1 colon

## CC(C)/C(Cl)=N/OC(=O)Nc1ccc(OC(F)(F)F)cc1
MDA-MB-231 breast
  TGI: 32.5 µM
SK-MEL-5 melanoma
  TGI: 21.3 µM
NCI/ADR-RES ovarian
  TGI: 33.6 µM
HT29 colon
  TGI: 35.9 µM
SF-539 CNS
  TGI: 31.3 µM
COLO 205 colon
  TGI: 3.26 µM
OVCAR-8 ovarian
  TGI: 33.5 µM
HCT-15 colon
  TGI: 18.8 µM
DU-145 prostate
  TGI: 31.5 µM
SN12C renal
  TGI: 31.7 µM
SR leukemia
  TGI: 8.44 µM
SK-MEL-2 melanoma
  TGI: 28.1 µM
MOLT-4 leukemia
  TGI: > 77.9 µM
SNB-19 CNS
  TGI: 31.6 µM
CAKI-1 renal
  TGI: 9.55 µM
OVCAR-5 ovarian
  TGI: 29.2 µM
A498 renal
  TGI: 32.9 µM
BT-549 breast
  TGI: 29.8 µM
NCI-H226 lung
  TGI: 23.5 µM
T-47D breast
  TGI: 25.8 µM
SF-268 CNS
  TGI: 39.1 µM
UACC-257 melanoma
  TGI: 26.6 µM
SK-MEL-28 melanoma
  TGI: 26.6 µM
HOP-92 NSCLC
  TGI: 3.71 µM
IGROV1 ovarian
  TGI: 30.5 µM
UO-31 renal
  TGI: 23.8 µM
LOX IMVI melanoma
  TGI: 5.89 µM
SK-OV-3 ovarian
  TGI: 31.9 µM
NCI-H460 lung
  TGI: 31.2 µM
SW-620 colon
  TGI: 3.27 µM
HCC-2998 colon
  TGI: 30.5 µM
CCRF-CEM leukemia
  TGI: 5.08 µM
HCT-116 colon
  TGI: 18 µM
NCI-H522 lung
  TGI: 2.81 µM
OVCAR-4 ovarian
  TGI: 16.7 µM
UACC-62 melanoma
  TGI: 30.2 µM
HS 578T breast
  TGI: 43 µM
RPMI-8226 leukemia
  TGI: 8.97 µM
A549 NSCLC
  TGI: 34.8 µM
MALME-3M melanoma
  TGI: 6.5 µM
PC-3 prostate
  TGI: 30.4 µM
NCI-H23 lung
  TGI: 30.9 µM
ACHN renal
  TGI: 25.1 µM
EKVX NSCLC
  TGI: 22.9 µM
OVCAR-3 ovarian
  TGI: 32.6 µM
MDA-MB-435
  TGI: 25.3 µM
SNB-75 CNS
  TGI: 29 µM
MCF7 breast
  TGI: 28 µM
HL-60(TB) leukemia
  TGI: 5.76 µM
K-562 leukemia
  TGI: 4.15 µM
KM12 colon
  TGI: 30.3 µM
MDA-N
  TGI: 26.2 µM
TK-10 renal
  TGI: 29.3 µM
U251 CNS
  TGI: 31.2 µM
M14 melanoma
  TGI: 12 µM
786-0 renal
  TGI: 19.6 µM
RXF 393 renal
  TGI: 18.3 µM
SF-295 CNS
  TGI: 33.1 µM
HOP-62 NSCLC
  TGI: 31.7 µM

## CN(C)c1ccc(Cc2cc3c(O)ccc(O)c3cc(Cc3ccc(N(C)C)cc3)c2=O)cc1
MDA-MB-231 breast
  TGI: 63.5 µM
SK-MEL-5 melanoma
  TGI: 39.3 µM
NCI/ADR-RES ovarian
  TGI: > 81.8 µM
HT29 colon
  TGI: 37.1 µM
SF-539 CNS
  TGI: 60.9 µM
COLO 205 colon
  TGI: 36.6 µM
OVCAR-8 ovarian
  TGI: 77.4 µM
HCT-15 colon
  TGI: 58 µM
DU-145 prostate
  TGI: > 60 µM
SN12C renal
  TGI: > 73.2 µM
SR leukemia
  TGI: > 26.5 µM
SK-MEL-2 melanoma
  TGI: > 68.9 µM
MOLT-4 leukemia
  TGI: 8.81 µM
SNB-19 CNS
  TGI: > 63.4 µM
CAKI-1 renal
  TGI: 20.5 µM
OVCAR-5 ovarian
  TGI: > 70 µM
A498 renal
  TGI: > 75.5 µM
BT-549 breast
  TGI: 32.2 µM
NCI-H226 lung
  TGI: 56.2 µM
T-47D breast
  TGI: 26.8 µM
SF-268 CNS
  TGI: > 77.5 µM
UACC-257 melanoma
  TGI: 48.9 µM
SK-MEL-28 melanoma
  TGI: 37.4 µM
HOP-92 NSCLC
  TGI: 14.5 µM
IGROV1 ovarian
  TGI: 40.2 µM
UO-31 renal
  TGI: 27.7 µM
LOX IMVI melanoma
  TGI: 40.7 µM
SK-OV-3 ovarian
  TGI: > 100 µM
NCI-H460 lung
  TGI: > 100 µM
SW-620 colon
  TGI: 41.9 µM
HCC-2998 colon
  TGI: 64 µM
CCRF-CEM leukemia
  TGI: 7.36 µM
HCT-116 colon
  TGI: 40.8 µM
NCI-H522 lung
  TGI: 32.5 µM
OVCAR-4 ovarian
  TGI: 39.5 µM
UACC-62 melanoma
  TGI: 65.9 µM
HS 578T breast
  TGI: 97.9 µM
RPMI-8226 leukemia
  TGI: > 84.9 µM
A549 NSCLC
  TGI: > 77.1 µM
MALME-3M melanoma
  TGI: 45.4 µM
PC-3 prostate
  TGI: 32.7 µM
NCI-H23 lung
  TGI: 53.9 µM
ACHN renal
  TGI: 25.3 µM
EKVX NSCLC
  TGI: 44.2 µM
OVCAR-3 ovarian
  TGI: 54.2 µM
MDA-MB-435
  TGI: 36.9 µM
SNB-75 CNS
  TGI: > 92.2 µM
MCF7 breast
  TGI: 58.6 µM
HL-60(TB) leukemia
  TGI: > 37.6 µM
K-562 leukemia
  TGI: 10.6 µM
KM12 colon
  TGI: 40 µM
MDA-N
  TGI: 41 µM
TK-10 renal
  TGI: 33.6 µM
U251 CNS
  TGI: 41.4 µM
M14 melanoma
  TGI: 34.2 µM
786-0 renal
  TGI: 32.1 µM
RXF 393 renal
  TGI: 31.9 µM
SF-295 CNS
  TGI: > 100 µM
HOP-62 NSCLC
  TGI: > 100 µM

## N.N.N.N.N.O=S(=O)([O-])S(=O)(=O)[O-].[Co+3]
SK-MEL-5 melanoma
  GI50: > 100 µM
  TGI: > 100 µM
HT29 colon
  GI50: > 100 µM
  TGI: > 100 µM
KM20L2 colon
  GI50: > 100 µM
  TGI: > 100 µM
SF-539 CNS
  GI50: > 100 µM
  TGI: > 100 µM
COLO 205 colon
  GI50: > 100 µM
  TGI: > 100 µM
OVCAR-8 ovarian
  GI50: > 100 µM
  TGI: > 100 µM
HCT-15 colon
  GI50: > 100 µM
  TGI: > 100 µM
SN12C renal
  GI50: > 100 µM
  TGI: > 100 µM
SK-MEL-2 melanoma
  GI50: > 100 µM
  TGI: > 100 µM
MOLT-4 leukemia
  GI50: > 100 µM
  TGI: > 100 µM
SNB-19 CNS
  GI50: > 100 µM
  TGI: > 100 µM
OVCAR-5 ovarian
  GI50: > 100 µM
  TGI: > 100 µM
A498 renal
  GI50: > 100 µM
  TGI: > 100 µM
SF-268 CNS
  GI50: > 100 µM
  TGI: > 100 µM
UACC-257 melanoma
  GI50: > 100 µM
  TGI: > 100 µM
SK-MEL-28 melanoma
  GI50: > 100 µM
  TGI: > 100 µM
HOP-92 NSCLC
  GI50: > 100 µM
  TGI: > 100 µM
IGROV1 ovarian
  GI50: > 100 µM
  TGI: > 100 µM
UO-31 renal
  GI50: > 100 µM
  TGI: > 100 µM
LOX IMVI melanoma
  GI50: > 100 µM
  TGI: > 100 µM
SK-OV-3 ovarian
  GI50: > 100 µM
  TGI: > 100 µM
NCI-H460 lung
  GI50: > 100 µM
  TGI: > 100 µM
SW-620 colon
  GI50: > 100 µM
  TGI: > 100 µM
CCRF-CEM leukemia
  GI50: > 100 µM
  TGI: > 100 µM
HCT-116 colon
  GI50: > 100 µM
  TGI: > 100 µM
NCI-H522 lung
  GI50: > 100 µM
  TGI: > 100 µM
OVCAR-4 ovarian
  GI50: > 100 µM
  TGI: > 100 µM
UACC-62 melanoma
  GI50: > 100 µM
  TGI: > 100 µM
SNB-78 CNS
  GI50: > 100 µM
  TGI: > 100 µM
RPMI-8226 leukemia
  GI50: > 100 µM
  TGI: > 100 µM
A549 NSCLC
  GI50: > 100 µM
  TGI: > 100 µM
MALME-3M melanoma
  GI50: > 100 µM
  TGI: > 100 µM
NCI-H23 lung
  GI50: > 100 µM
  TGI: > 100 µM
ACHN renal
  GI50: > 100 µM
  TGI: > 100 µM
EKVX NSCLC
  GI50: > 100 µM
  TGI: > 100 µM
OVCAR-3 ovarian
  GI50: > 100 µM
  TGI: > 100 µM
SNB-75 CNS
  GI50: 62.8 µM
  TGI: > 100 µM
DMS 273 small cell lung
  GI50: > 100 µM
  TGI: > 100 µM
HL-60(TB) leukemia
  GI50: > 100 µM
  TGI: > 100 µM
K-562 leukemia
  GI50: > 100 µM
  TGI: > 100 µM
KM12 colon
  GI50: > 100 µM
  TGI: > 100 µM
TK-10 renal
  GI50: > 100 µM
  TGI: > 100 µM
U251 CNS
  GI50: > 100 µM
  TGI: > 100 µM
M14 melanoma
  GI50: > 100 µM
  TGI: > 100 µM
786-0 renal
  GI50: > 100 µM
  TGI: > 100 µM
SF-295 CNS
  GI50: > 100 µM
  TGI: > 100 µM
LXFL 529 NSCLC
  GI50: > 100 µM
  TGI: > 100 µM
DLD-1 colon
  GI50: > 100 µM
  TGI: > 100 µM
